Reference: PubChem BioAssay AID1963436 (Molecular Pharmacology Branch, DTP, NCI, 2024)
pIC50: −log10 of the molar value.

Test system: OVCAR-5 complex spheroid (HUVEC/MSC), viability % T/C
Assay: Anticancer human tumor OVCAR-5 cell line growth inhibition [Asc];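 further: spheroids exposed to agents for 7 days before readout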;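 on viability, T/C: 100% = DMSO vehicle-treated wells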
Conditions: for pIC50: curve of first compound; for viability, T/C: stronger effect = lower value; active means viability on the fitted dose curve at most 10% of control; inactive means the rest
How it was run: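 Concentration series start at each agent's clinical Cmax, or at 10 microM when none is established, and drop in half-log steps; agents are applied alone or together to complex spheroids built with HUVEC and hMSC.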

[1] = second compound 0.01 µM, first compound 0.0316 µM
[2] = second compound 0.01 µM, first compound 0.1 µM
[3] = second compound 0.0316 µM, first compound 0.0316 µM
[4] = second compound 0.0316 µM, first compound 0.1 µM
[5] = second compound 0.1 µM, first compound 0.0316 µM
[6] = second compound 0.1 µM, first compound 0.1 µM
[7] = second compound 0.316 µM, first compound 0.0316 µM
[8] = second compound 0.316 µM, first compound 0.1 µM
[9] = second compound 1 µM, first compound 0.0316 µM
[10] = second compound 1 µM, first compound 0.1 µM

Cc1nc(N2CCC3(CC2)COC(C)C3N)c(CO)nc1Sc1ccnc(N)c1Cl (stereo not given) + CCN1C(C(=O)NC23CCC(C(=O)O)(CC2)CC3)C(c2cccc(Cl)c2F)C2(C(=O)Nc3cc(Cl)ccc32)C12CCCCC2
< 5.52: pIC50 (second compound 0.03 µM) | pIC50 (second compound 0.0949 µM) | pIC50 (second compound 0.3 µM) | pIC50 (second compound 0.949 µM) | pIC50 (second compound 3 µM)
inactive: viability, T/C (second compound 0.03 µM, first compound 0.00949 µM) 104% | viability, T/C (second compound 0.03 µM, first compound 0.03 µM) 101% | viability, T/C (second compound 0.03 µM, first compound 0.0949 µM) 79.8% | viability, T/C (second compound 0.03 µM, first compound 0.3 µM) 79.8% | viability, T/C (second compound 0.03 µM, first compound 0.949 µM) 71.4% | viability, T/C (second compound 0.03 µM, first compound 3 µM) 60.6% | viability, T/C (second compound 0.0949 µM, first compound 0.00949 µM) 108% | viability, T/C (second compound 0.0949 µM, first compound 0.03 µM) 97.1% | viability, T/C (second compound 0.0949 µM, first compound 0.0949 µM) 89.4% | viability, T/C (second compound 0.0949 µM, first compound 0.3 µM) 82% | viability, T/C (second compound 0.0949 µM, first compound 0.949 µM) 70.8% | viability, T/C (second compound 0.0949 µM, first compound 3 µM) 56% | viability, T/C (second compound 0.3 µM, first compound 0.00949 µM) 112% | viability, T/C (second compound 0.3 µM, first compound 0.03 µM) 105% | viability, T/C (second compound 0.3 µM, first compound 0.0949 µM) 86.1% | viability, T/C (second compound 0.3 µM, first compound 0.3 µM) 72.4% | viability, T/C (second compound 0.3 µM, first compound 0.949 µM) 64.2% | viability, T/C (second compound 0.3 µM, first compound 3 µM) 60.8% | viability, T/C (second compound 0.949 µM, first compound 0.00949 µM) 107% | viability, T/C (second compound 0.949 µM, first compound 0.03 µM) 105% | viability, T/C (second compound 0.949 µM, first compound 0.0949 µM) 96.3% | viability, T/C (second compound 0.949 µM, first compound 0.3 µM) 73.6% | viability, T/C (second compound 0.949 µM, first compound 0.949 µM) 69.5% | viability, T/C (second compound 0.949 µM, first compound 3 µM) 70.3% | viability, T/C (second compound 3 µM, first compound 0.00949 µM) 104% | viability, T/C (second compound 3 µM, first compound 0.03 µM) 110% | viability, T/C (second compound 3 µM, first compound 0.0949 µM) 99.3% | viability, T/C (second compound 3 µM, first compound 0.3 µM) 79% | viability, T/C (second compound 3 µM, first compound 0.949 µM) 68.4% | viability, T/C (second compound 3 µM, first compound 3 µM) 65.9%

Cn1ncnc1[C@H]1c2n[nH]c(=O)c3cc(F)cc(c23)N[C@@H]1c1ccc(F)cc1 + CNC(C)C(=O)NC1CN(S(=O)(=O)c2cccc(S(=O)(=O)N3CCC4CCC(C(=O)NC(c5ccccc5)c5ccccc5)N4C(=O)C(NC(=O)C(C)NC)C3)c2)CCC2CCC(C(=O)NC(c3ccccc3)c3ccccc3)N2C1=O
< 7.00: pIC50 (second compound 0.01 µM) | pIC50 (second compound 0.0316 µM) | pIC50 (second compound 0.1 µM) | pIC50 (second compound 0.316 µM) | pIC50 (second compound 1 µM)
inactive: viability, T/C (second compound 0.01 µM, first compound 0.000316 µM) 92.5% | viability, T/C (second compound 0.01 µM, first compound 0.001 µM) 86.9% | viability, T/C (second compound 0.01 µM, first compound 0.00316 µM) 85.9% | viability, T/C (second compound 0.01 µM, first compound 0.01 µM) 84.3% | viability, T/C [1] 92.3% | viability, T/C [2] 86.5% | viability, T/C (second compound 0.0316 µM, first compound 0.000316 µM) 81.8% | viability, T/C (second compound 0.0316 µM, first compound 0.001 µM) 77.6% | viability, T/C (second compound 0.0316 µM, first compound 0.00316 µM) 84.5% | viability, T/C (second compound 0.0316 µM, first compound 0.01 µM) 73.2% | viability, T/C [3] 73.9% | viability, T/C [4] 74.6% | viability, T/C (second compound 0.1 µM, first compound 0.000316 µM) 78.3% | viability, T/C (second compound 0.1 µM, first compound 0.001 µM) 88.3% | viability, T/C (second compound 0.1 µM, first compound 0.00316 µM) 81.6% | viability, T/C (second compound 0.1 µM, first compound 0.01 µM) 71.7% | viability, T/C [5] 73.4% | viability, T/C [6] 68.5% | viability, T/C (second compound 0.316 µM, first compound 0.000316 µM) 81.5% | viability, T/C (second compound 0.316 µM, first compound 0.001 µM) 85.8% | viability, T/C (second compound 0.316 µM, first compound 0.00316 µM) 85.1% | viability, T/C (second compound 0.316 µM, first compound 0.01 µM) 71.5% | viability, T/C [7] 80.7% | viability, T/C [8] 74.8% | viability, T/C (second compound 1 µM, first compound 0.000316 µM) 88.3% | viability, T/C (second compound 1 µM, first compound 0.001 µM) 94.4% | viability, T/C (second compound 1 µM, first compound 0.00316 µM) 78.6% | viability, T/C (second compound 1 µM, first compound 0.01 µM) 72.7% | viability, T/C [9] 76.1% | viability, T/C [10] 69.1%

O=C(c1cc(Cc2n[nH]c(=O)c3ccccc23)ccc1F)N1CCN(C(=O)C2CC2)CC1 + CNC(C)C(=O)NC1CN(S(=O)(=O)c2cccc(S(=O)(=O)N3CCC4CCC(C(=O)NC(c5ccccc5)c5ccccc5)N4C(=O)C(NC(=O)C(C)NC)C3)c2)CCC2CCC(C(=O)NC(c3ccccc3)c3ccccc3)N2C1=O
< 5.00: pIC50 (second compound 0.01 µM) | pIC50 (second compound 0.0316 µM) | pIC50 (second compound 0.1 µM) | pIC50 (second compound 0.316 µM) | pIC50 (second compound 1 µM)
inactive: viability, T/C [1] 97.3% | viability, T/C [2] 95.8% | viability, T/C (second compound 0.01 µM, first compound 0.316 µM) 87.1% | viability, T/C (second compound 0.01 µM, first compound 1 µM) 96.2% | viability, T/C (second compound 0.01 µM, first compound 3.16 µM) 80.5% | viability, T/C (second compound 0.01 µM, first compound 10 µM) 70.3% | viability, T/C [3] 81.4% | viability, T/C [4] 88.3% | viability, T/C (second compound 0.0316 µM, first compound 0.316 µM) 81.7% | viability, T/C (second compound 0.0316 µM, first compound 1 µM) 74.6% | viability, T/C (second compound 0.0316 µM, first compound 3.16 µM) 77.9% | viability, T/C (second compound 0.0316 µM, first compound 10 µM) 67.9% | viability, T/C [5] 84.9% | viability, T/C [6] 95.6% | viability, T/C (second compound 0.1 µM, first compound 0.316 µM) 77.9% | viability, T/C (second compound 0.1 µM, first compound 1 µM) 74.8% | viability, T/C (second compound 0.1 µM, first compound 3.16 µM) 75.1% | viability, T/C (second compound 0.1 µM, first compound 10 µM) 55.5% | viability, T/C [7] 77.4% | viability, T/C [8] 75.5% | viability, T/C (second compound 0.316 µM, first compound 0.316 µM) 80.7% | viability, T/C (second compound 0.316 µM, first compound 1 µM) 75.5% | viability, T/C (second compound 0.316 µM, first compound 3.16 µM) 67.2% | viability, T/C (second compound 0.316 µM, first compound 10 µM) 62% | viability, T/C [9] 83.5% | viability, T/C [10] 76.1% | viability, T/C (second compound 1 µM, first compound 0.316 µM) 88.9% | viability, T/C (second compound 1 µM, first compound 1 µM) 73.8% | viability, T/C (second compound 1 µM, first compound 3.16 µM) 65.3% | viability, T/C (second compound 1 µM, first compound 10 µM) 55.9%
